{"source": "paper PMC5218480", "about": "(PLoS ONE, 2017)", "system": "MV-4-11 cells", "assay": "Gene expression microarray analysis (Affymetrix PrimeView) and GSEA", "format": "cell-based, human", "set-up": "RFU PODN (11730768_x_at) / Fold change /veh PODN (11730768_x_at) / RFU LINC00158 (11744669_a_at) / Fold change /veh LINC00158 (11744669_a_at) / RFU DUSP10 (11751237_a_at) / Fold change /veh DUSP10 (11751237_a_at) / RFU ID3 (11757404_x_at) / Fold change /veh ID3 (11757404_x_at) / RFU PLEKHG5 (11737974_s_at) / Fold change /veh PLEKHG5 (11737974_s_at) / RFU LRRC4B (11730491_at) / Fold change /veh LRRC4B (11730491_at) / RFU GIMAP4 (11747438_a_at) / Fold change /veh GIMAP4 (11747438_a_at) / RFU KRT8 (11758183_x_at) / Fold change /veh KRT8 (11758183_x_at) / RFU CNN1 (11734310_a_at) / Fold change /veh CNN1 (11734310_a_at) / RFU VPS37D (11726825_at) / Fold change /veh VPS37D (11726825_at) / RFU C10orf10 (11716522_x_at) / Fold change /veh C10orf10 (11716522_x_at) / RFU KIR2DL2 /// KIR2DL4 /// KIR2DL5A /// KIR2DL5B /// KIR2DS1 /// KIR2DS2 /// KIR2DS3 /// KIR2DS4 /// KIR3DL3 /// KIR3DL3 /// KIR3DS1 (11738374_at) / Fold change /veh KIR2DL2 /// KIR2DL4 /// KIR2DL5A /// KIR2DL5B /// KIR2DS1 /// KIR2DS2 /// KIR2DS3 /// KIR2DS4 /// KIR3DL3 /// KIR3DL3 /// KIR3DS1 (11738374_at) / RFU C1QL1 (11718748_at) / Fold change /veh C1QL1 (11718748_at) / RFU TMPRSS4 (11747572_a_at) / Fold change /veh TMPRSS4 (11747572_a_at) / RFU HAMP (11756126_x_at) / Fold change /veh HAMP (11756126_x_at) / RFU RNFT2 (11725882_a_at) / Fold change /veh RNFT2 (11725882_a_at) / RFU NR4A2 (11747474_a_at) / Fold change /veh NR4A2 (11747474_a_at) / RFU ABCC12 (11746883_a_at) / Fold change /veh ABCC12 (11746883_a_at) / RFU TMEM136 (11760407_x_at) / Fold change /veh TMEM136 (11760407_x_at) / RFU CLDN22 /// WWC2 (11732394_at) / Fold change /veh CLDN22 /// WWC2 (11732394_at) / RFU HLA-DPB1 (11760878_x_at) / Fold change /veh HLA-DPB1 (11760878_x_at) / RFU SPINT1 (11716480_a_at) / Fold change /veh SPINT1 (11716480_a_at) / RFU GAP43 (11754022_s_at) / Fold change /veh GAP43 (11754022_s_at) / RFU A4GNT (11735810_at) / Fold change /veh A4GNT (11735810_at) / RFU PRB3 (11715151_x_at) / Fold change /veh PRB3 (11715151_x_at) / RFU TUBB4B (11761932_at) / Fold change /veh TUBB4B (11761932_at) / RFU CAPN14 (11732068_a_at) / Fold change /veh CAPN14 (11732068_a_at) / RFU TMCC2 (11721928_a_at) / Fold change /veh TMCC2 (11721928_a_at) / RFU IRGQ (11745062_a_at) / Fold change /veh IRGQ (11745062_a_at) / RFU FAM174B (11720279_a_at) / Fold change /veh FAM174B (11720279_a_at) / RFU TMPRSS4 (11748680_a_at) / Fold change /veh TMPRSS4 (11748680_a_at) / RFU FAM212B (11763350_a_at) / Fold change /veh FAM212B (11763350_a_at) / RFU PLEKHG5 (11743358_a_at) / Fold change /veh PLEKHG5 (11743358_a_at) / RFU ZSCAN30 (11745921_a_at) / Fold change /veh ZSCAN30 (11745921_a_at) / RFU CMKLR1 (11741424_a_at) / Fold change /veh CMKLR1 (11741424_a_at) / RFU LOC101060620 /// MAPK8IP1 (11723275_at) / Fold change /veh LOC101060620 /// MAPK8IP1 (11723275_at) / RFU SPTSSB (11747773_x_at) / Fold change /veh SPTSSB (11747773_x_at) / RFU PRSS12 (11739890_at) / Fold change /veh PRSS12 (11739890_at) / RFU BIN1 (11741810_x_at) / Fold change /veh BIN1 (11741810_x_at) / RFU WNT11 (11732464_a_at) / Fold change /veh WNT11 (11732464_a_at) / RFU C10orf10 (11716521_a_at) / Fold change /veh C10orf10 (11716521_a_at) / RFU C5orf56 (11738089_at) / Fold change /veh C5orf56 (11738089_at) / RFU CYB561 (11721691_x_at) / Fold change /veh CYB561 (11721691_x_at) / RFU ANKRD19P (11752326_a_at) / Fold change /veh ANKRD19P (11752326_a_at) / RFU OR2T12 /// OR2T33 /// OR2T8 (11738714_s_at) / Fold change /veh OR2T12 /// OR2T33 /// OR2T8 (11738714_s_at) / RFU VCAN (11748164_a_at) / Fold change /veh VCAN (11748164_a_at) / RFU JSRP1 (11732532_at) / Fold change /veh JSRP1 (11732532_at) / RFU KRTAP10-11 (11738290_x_at) / Fold change /veh KRTAP10-11 (11738290_x_at) / RFU MYO3A (11730013_a_at) / Fold change /veh MYO3A (11730013_a_at) / RFU EBF3 (11725865_a_at) / Fold change /veh EBF3 (11725865_a_at) / RFU CAMK2N1 (11719241_x_at) / Fold change /veh CAMK2N1 (11719241_x_at) / RFU C5orf56 (11738088_a_at) / Fold change /veh C5orf56 (11738088_a_at) / RFU OLFML3 (11715873_a_at) / Fold change /veh OLFML3 (11715873_a_at) / RFU LOC100653217 /// NTM (11731650_a_at) / Fold change /veh LOC100653217 /// NTM (11731650_a_at) / RFU MAPK11 (11762145_a_at) / Fold change /veh MAPK11 (11762145_a_at) / RFU FIZ1 (11724087_x_at) / Fold change /veh FIZ1 (11724087_x_at) / RFU OASL (11726364_x_at) / Fold change /veh OASL (11726364_x_at) / RFU SOX15 (11748057_x_at) / Fold change /veh SOX15 (11748057_x_at) / RFU CD79A (11719716_a_at) / Fold change /veh CD79A (11719716_a_at) / RFU HIST1H1D (11736915_at) / Fold change /veh HIST1H1D (11736915_at) / RFU CASKIN2 (11723855_a_at) / Fold change /veh CASKIN2 (11723855_a_at) / RFU LOC730098 (11760151_x_at) / Fold change /veh LOC730098 (11760151_x_at) / RFU OR4N2 (11742367_at) / Fold change /veh OR4N2 (11742367_at) / RFU PRRT2 (11749266_a_at) / Fold change /veh PRRT2 (11749266_a_at) / RFU SNX32 (11753110_a_at) / Fold change /veh SNX32 (11753110_a_at) / RFU CDHR5 (11726645_a_at) / Fold change /veh CDHR5 (11726645_a_at) / RFU RCAN1 (11760418_a_at) / Fold change /veh RCAN1 (11760418_a_at) / RFU FAM167A (11723789_a_at) / Fold change /veh FAM167A (11723789_a_at) / RFU FAM26E (11764081_at) / Fold change /veh FAM26E (11764081_at) / RFU ISYNA1 (11749810_s_at) / Fold change /veh ISYNA1 (11749810_s_at) / RFU ACY1 (11761880_at) / Fold change /veh ACY1 (11761880_at) / RFU 11764098_at / Fold change /veh 11764098_at / RFU SAMD14 (11745864_x_at) / Fold change /veh SAMD14 (11745864_x_at) / RFU NPB (11741838_a_at) / Fold change /veh NPB (11741838_a_at) / RFU TMPRSS6 (11731388_a_at) / Fold change /veh TMPRSS6 (11731388_a_at) / RFU KRTAP10-2 (11738614_at) / Fold change /veh KRTAP10-2 (11738614_at) / RFU ARHGAP8 /// PRR5-ARHGAP8 (11727945_x_at) / Fold change /veh ARHGAP8 /// PRR5-ARHGAP8 (11727945_x_at) / RFU KRTAP5-7 /// NADSYN1 (11734609_at) / Fold change /veh KRTAP5-7 /// NADSYN1 (11734609_at) / RFU RASL12 (11751679_a_at) / Fold change /veh RASL12 (11751679_a_at) / RFU CDKN2B (11736163_a_at) / Fold change /veh CDKN2B (11736163_a_at) / RFU PRF1 (11729649_at) / Fold change /veh PRF1 (11729649_at) / RFU, ZNF638 /// ZNF638-IT1 / Fold change vs veh, ZNF638 /// ZNF638-IT1 / RFU, PANK3 / Fold change vs veh, PANK3 / RFU, SH3YL1 / Fold change vs veh, SH3YL1 / RFU, ZEB2 / Fold change vs veh, ZEB2 / RFU, NRIP1 / Fold change vs veh, NRIP1 / RFU, PTTG1IP / Fold change vs veh, PTTG1IP / RFU, CAPN2 / Fold change vs veh, CAPN2 / RFU, MED14 / Fold change vs veh, MED14 / RFU, SNORA58 / Fold change vs veh, SNORA58 / RFU, C1orf63 / Fold change vs veh, C1orf63 / RFU, LRRFIP1 / Fold change vs veh, LRRFIP1 / RFU, NDUFAF7 / Fold change vs veh, NDUFAF7 / RFU, SLC12A2 / Fold change vs veh, SLC12A2 / RFU, IBTK / Fold change vs veh, IBTK / RFU, ESF1 / Fold change vs veh, ESF1 / Fold change vs veh, TMEM50B / RFU, TAOK1 / Fold change vs veh, TAOK1 / RFU, ACBD3 / Fold change vs veh, ACBD3 / RFU, TMA16 / Fold change vs veh, TMA16 / RFU, RWDD3 / Fold change vs veh, RWDD3 / RFU, BCAT1 / Fold change vs veh, BCAT1 / RFU, EDEM3 / Fold change vs veh, EDEM3 / RFU, TMEM33 / Fold change vs veh, TMEM33 / RFU, WDR75 / Fold change vs veh, WDR75 / RFU, AHCTF1 / Fold change vs veh, AHCTF1 / RFU, TFRC / Fold change vs veh, TFRC / RFU, ZDHHC17 / Fold change vs veh, ZDHHC17 / RFU, NOM1 / Fold change vs veh, NOM1 / RFU, ARL8B / Fold change vs veh, ARL8B / RFU, ZBTB11 / Fold change vs veh, ZBTB11 / RFU, TAMM41 / Fold change vs veh, TAMM41 / RFU, KIAA1704 /// LOC100996395 / Fold change vs veh, KIAA1704 /// LOC100996395 / RFU, ING1 / Fold change vs veh, ING1 / RFU, TRMT61B / Fold change vs veh, TRMT61B / RFU, FUBP3 / Fold change vs veh, FUBP3 / RFU, TP53 / Fold change vs veh, TP53 / RFU, TNKS2 / Fold change vs veh, TNKS2 / RFU, ZFP14 / Fold change vs veh, ZFP14 / RFU, ACTR2 / Fold change vs veh, ACTR2 / RFU, PPP3R1 / Fold change vs veh, PPP3R1 / RFU, PIK3R1 / Fold change vs veh, PIK3R1 / RFU, HNRNPA1 / Fold change vs veh, HNRNPA1 / RFU, RNF170 / Fold change vs veh, RNF170 / RFU, ZNF28 / Fold change vs veh, ZNF28 / RFU, RNGTT / Fold change vs veh, RNGTT / RFU, OGT / Fold change vs veh, OGT / RFU, BRD1 / Fold change vs veh, BRD1 / RFU, MARS / Fold change vs veh, MARS / RFU, ZNF655 / Fold change vs veh, ZNF655 / RFU, FAHD1 / Fold change vs veh, FAHD1 / RFU, BDP1 / Fold change vs veh, BDP1 / RFU, LRRCC1 / Fold change vs veh, LRRCC1 / RFU, ARID1A / Fold change vs veh, ARID1A / RFU, ZNF146 / Fold change vs veh, ZNF146 / RFU, ZNF330 / Fold change vs veh, ZNF330 / RFU, GPN3 / Fold change vs veh, GPN3 / RFU, C9orf123 / Fold change vs veh, C9orf123 / RFU, N4BP2L2 / Fold change vs veh, N4BP2L2 / RFU, ARFIP1 / Fold change vs veh, ARFIP1 / RFU, FAM179B / Fold change vs veh, FAM179B / RFU, BCL10 / Fold change vs veh, BCL10 / RFU, UHRF1BP1L / Fold change vs veh, UHRF1BP1L / RFU, BET1 / Fold change vs veh, BET1 / RFU, CNOT2 / Fold change vs veh, CNOT2 / RFU, ZNF268 / Fold change vs veh, ZNF268 / Fold change vs veh, ZNF507 / RFU, DGCR2 / Fold change vs veh, DGCR2 / RFU, WDSUB1 / Fold change vs veh, WDSUB1 / Fold change vs veh, HSP90B1 /// MIR3652 / RFU, ADSS / Fold change vs veh, ADSS / RFU, GK / Fold change vs veh, GK / RFU, ZNF148 / Fold change vs veh, ZNF148 / RFU, TAF9 / Fold change vs veh, TAF9 / RFU, SLC1A5 / Fold change vs veh, SLC1A5 / RFU, SLMO2 / Fold change vs veh, SLMO2 / RFU, ABCC4 / Fold change vs veh, ABCC4 / RFU, LOC101060439 /// RAP1B / Fold change vs veh, LOC101060439 /// RAP1B / RFU, RFX7 / Fold change vs veh, RFX7 / RFU, GTPBP10 / Fold change vs veh, GTPBP10 / RFU, CNEP1R1 / Fold change vs veh, CNEP1R1 / RFU, BIVM-ERCC5 /// ERCC5 / Fold change vs veh, BIVM-ERCC5 /// ERCC5 / RFU, ILF3 / Fold change vs veh, ILF3 / RFU 11762660_at / Fold change /veh 11762660_at / RFU VCAN (11757783_s_at) / Fold change /veh VCAN (11757783_s_at) / RFU DDX43 (11728927_at) / Fold change /veh DDX43 (11728927_at) / RFU KRT8 (11758188_x_at) / Fold change /veh KRT8 (11758188_x_at) / RFU NKD1 (11759106_at) / Fold change /veh NKD1 (11759106_at) / RFU SRD5A1 (11742802_a_at) / Fold change /veh SRD5A1 (11742802_a_at) / RFU TPSAB1 /// TPSB2 (11721975_s_at) / Fold change /veh TPSAB1 /// TPSB2 (11721975_s_at) / RFU GSTM3 (11746129_a_at) / Fold change /veh GSTM3 (11746129_a_at) / RFU IL23R (11737362_x_at) / Fold change /veh IL23R (11737362_x_at) / RFU TMEM51 (11727254_a_at) / Fold change /veh TMEM51 (11727254_a_at) / RFU PIWIL2 (11732686_x_at) / Fold change /veh PIWIL2 (11732686_x_at) / RFU ORM1 (11744905_x_at) / Fold change /veh ORM1 (11744905_x_at) / RFU CCDC152 (11743942_at) / Fold change /veh CCDC152 (11743942_at) / RFU ECM1 (11717891_a_at) / Fold change /veh ECM1 (11717891_a_at) / RFU IL23R (11748794_a_at) / Fold change /veh IL23R (11748794_a_at) / RFU TNFAIP8L3 (11732012_x_at) / Fold change /veh TNFAIP8L3 (11732012_x_at) / RFU MBOAT4 (11741988_at) / Fold change /veh MBOAT4 (11741988_at) / RFU 11764193_at / Fold change /veh 11764193_at / RFU TMEM53 (11763286_at) / Fold change /veh TMEM53 (11763286_at) / RFU MAGEB2 (11727129_at) / Fold change /veh MAGEB2 (11727129_at) / RFU TMEM200A (11744735_a_at) / Fold change /veh TMEM200A (11744735_a_at) / RFU CCDC152 (11751479_a_at) / Fold change /veh CCDC152 (11751479_a_at) / RFU FAM211A (11726209_a_at) / Fold change /veh FAM211A (11726209_a_at) / RFU RGS16 (11746705_a_at) / Fold change /veh RGS16 (11746705_a_at) / RFU VCAN (11755009_s_at) / Fold change /veh VCAN (11755009_s_at) / RFU RHOB (11743442_s_at) / Fold change /veh RHOB (11743442_s_at) / RFU RGS16 (11720943_a_at) / Fold change /veh RGS16 (11720943_a_at) / RFU RGS16 (11720944_at) / Fold change /veh RGS16 (11720944_at) / RFU, VPS4B / Fold change vs veh, VPS4B / RFU, CREB1 / Fold change vs veh, CREB1 / RFU, DNAJC13 / Fold change vs veh, DNAJC13 / RFU, GNAQ / Fold change vs veh, GNAQ / RFU, CDK5R1 / Fold change vs veh, CDK5R1 / RFU, ZRANB3 / Fold change vs veh, ZRANB3 / RFU, CUL4A / Fold change vs veh, CUL4A / RFU, CCNY / Fold change vs veh, CCNY / RFU, UFL1 / Fold change vs veh, UFL1 / RFU, COG3 / Fold change vs veh, COG3 / RFU, DIAPH2 / Fold change vs veh, DIAPH2 / RFU, SKA2 / Fold change vs veh, SKA2 / RFU, AFF3 / Fold change vs veh, AFF3 / RFU, LMF1 / Fold change vs veh, LMF1 / RFU, IPO11 / Fold change vs veh, IPO11 / RFU, DFFB / Fold change vs veh, DFFB / RFU, FOXP1 / Fold change vs veh, FOXP1 / RFU, CARD8 / Fold change vs veh, CARD8 / RFU, STRN3 / Fold change vs veh, STRN3 / RFU, ADK / Fold change vs veh, ADK / RFU, RASSF2 / Fold change vs veh, RASSF2 / RFU, WIPF1 / Fold change vs veh, WIPF1 / RFU, LARP1B / Fold change vs veh, LARP1B / RFU, RASA1 / Fold change vs veh, RASA1 / RFU, RB1 / Fold change vs veh, RB1 / RFU, PPFIA1 / Fold change vs veh, PPFIA1 / RFU, MAT2A / Fold change vs veh, MAT2A / RFU, CCT5 / Fold change vs veh, CCT5 / RFU, WDR92 / Fold change vs veh, WDR92 / RFU, CUX1 / Fold change vs veh, CUX1 / RFU, TTC7A / Fold change vs veh, TTC7A / RFU, TMEM135 / Fold change vs veh, TMEM135 / RFU, DEPTOR / Fold change vs veh, DEPTOR / RFU, CPM / Fold change vs veh, CPM / RFU, DNAJB6 / Fold change vs veh, DNAJB6 / RFU, CACNA2D3 / Fold change vs veh, CACNA2D3 / RFU, DTX4 / Fold change vs veh, DTX4 / RFU, TFCP2 / Fold change vs veh, TFCP2 / RFU, GMCL1 /// GMCL1P1 / Fold change vs veh, GMCL1 /// GMCL1P1 / RFU, AEBP2 / Fold change vs veh, AEBP2 / RFU, SNHG1 /// SNORD22 /// SNORD25 /// SNORD26 /// SNORD27 /// SNORD28 /// SNORD29 /// SNORD31 / Fold change vs veh, SNHG1 /// SNORD22 /// SNORD25 /// SNORD26 /// SNORD27 /// SNORD28 /// SNORD29 /// SNORD31 / Fold change (Aza/veh), C12orf56 (ProbeSet 11735607_a_at) / Fold change (ACY-1035/veh), C12orf56 (ProbeSet 11735607_a_at) / Fold change (Aza/veh), FGFR1OP (ProbeSet 11751329_s_at) / Fold change (ACY-1035/veh), FGFR1OP (ProbeSet 11751329_s_at) / Fold change (Aza/veh), VPS36 (ProbeSet 11739960_a_at) / Fold change (ACY-1035/veh), VPS36 (ProbeSet 11739960_a_at) / RFU SYPL1 (11715823_x_at) / Fold change /veh SYPL1 (11715823_x_at) / RFU IGFBP7 (11715501_s_at) / Fold change /veh IGFBP7 (11715501_s_at) / RFU REEP3 (11722064_at) / Fold change /veh REEP3 (11722064_at) / RFU IGLL1 (11728026_x_at) / Fold change /veh IGLL1 (11728026_x_at): dose or concentration left out as unconfirmed", "details": "MV-4-11 cells, 48 hours"}
{"smiles": "Nc1ccc(-c2cccs2)cc1NC(=O)c1ccc2c(c1)cc(C1CC1)n2CCN1CCOCC1", "note": "[ACY-1035]", "values": [{"measurement": "RFU C1QL1 (11718748_at)", "value": 611.11, "unit": "RFU"}]}
